Data as given in ChEMBL document CHEMBL1201862, “PubChem BioAssay data set” (2004).
Activity calls are given as the source filed them.

What was measured:
[1] = target: T1, Small ubiquitin-related modifier 1 (Homo sapiens, UniProt P63165); test: inhibitors of SUMO1 partner interactions, dose response, biochemical, FRET (AID 624383); format: functional; conditions: read-out: IC50_Mean
[2] = target: Keap1/Nrf2 (Homo sapiens, UniProt Q14145); test: Keap1-Nrf2 protein-protein interaction inhibitors, dose response, biochemical, fluorescence polarization, cherry-picked samples (AID 588683)
Sequence of Keap1/Nrf2 (Q16236 whole entry): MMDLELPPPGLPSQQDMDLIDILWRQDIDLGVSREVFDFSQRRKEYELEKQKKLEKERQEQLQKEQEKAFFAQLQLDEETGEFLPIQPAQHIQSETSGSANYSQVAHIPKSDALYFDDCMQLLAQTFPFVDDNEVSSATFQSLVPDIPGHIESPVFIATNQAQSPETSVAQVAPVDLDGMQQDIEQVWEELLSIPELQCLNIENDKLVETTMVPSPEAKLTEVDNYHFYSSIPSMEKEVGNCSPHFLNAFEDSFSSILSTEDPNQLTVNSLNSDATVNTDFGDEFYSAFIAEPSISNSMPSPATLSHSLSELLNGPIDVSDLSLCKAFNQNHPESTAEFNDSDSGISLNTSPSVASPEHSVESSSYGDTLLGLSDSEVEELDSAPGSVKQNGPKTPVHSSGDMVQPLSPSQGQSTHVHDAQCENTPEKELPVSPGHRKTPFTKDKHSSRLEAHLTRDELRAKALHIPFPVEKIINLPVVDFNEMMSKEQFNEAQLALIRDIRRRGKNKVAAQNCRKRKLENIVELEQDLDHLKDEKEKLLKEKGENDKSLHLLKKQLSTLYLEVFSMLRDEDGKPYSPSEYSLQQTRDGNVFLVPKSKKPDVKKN
Sequence of Keap1/Nrf2 (Q14145 whole entry): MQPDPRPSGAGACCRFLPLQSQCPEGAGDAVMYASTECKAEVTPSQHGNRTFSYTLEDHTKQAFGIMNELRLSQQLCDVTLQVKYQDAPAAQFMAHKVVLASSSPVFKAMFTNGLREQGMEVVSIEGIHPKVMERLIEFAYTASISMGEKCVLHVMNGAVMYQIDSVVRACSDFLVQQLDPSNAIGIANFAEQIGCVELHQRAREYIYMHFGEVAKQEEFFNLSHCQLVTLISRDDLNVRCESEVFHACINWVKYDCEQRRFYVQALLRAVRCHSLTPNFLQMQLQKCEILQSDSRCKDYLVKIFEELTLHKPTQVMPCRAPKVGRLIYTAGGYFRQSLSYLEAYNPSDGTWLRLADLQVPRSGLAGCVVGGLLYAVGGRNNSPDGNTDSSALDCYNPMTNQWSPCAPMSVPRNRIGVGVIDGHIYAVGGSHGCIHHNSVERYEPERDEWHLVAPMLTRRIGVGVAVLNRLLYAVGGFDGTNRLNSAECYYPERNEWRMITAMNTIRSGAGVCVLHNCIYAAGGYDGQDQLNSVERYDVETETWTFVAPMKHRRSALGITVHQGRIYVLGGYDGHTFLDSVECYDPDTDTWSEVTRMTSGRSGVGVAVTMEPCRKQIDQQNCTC

[3] = target: T2, Insulin-degrading enzyme (Homo sapiens, UniProt P14735); test: activators of recombinant IDE enzyme, dose response, counter-screen for IDE activator project, biochemical, fluorescence polarization (AID 588681)
T2 sequence (P14735 whole entry): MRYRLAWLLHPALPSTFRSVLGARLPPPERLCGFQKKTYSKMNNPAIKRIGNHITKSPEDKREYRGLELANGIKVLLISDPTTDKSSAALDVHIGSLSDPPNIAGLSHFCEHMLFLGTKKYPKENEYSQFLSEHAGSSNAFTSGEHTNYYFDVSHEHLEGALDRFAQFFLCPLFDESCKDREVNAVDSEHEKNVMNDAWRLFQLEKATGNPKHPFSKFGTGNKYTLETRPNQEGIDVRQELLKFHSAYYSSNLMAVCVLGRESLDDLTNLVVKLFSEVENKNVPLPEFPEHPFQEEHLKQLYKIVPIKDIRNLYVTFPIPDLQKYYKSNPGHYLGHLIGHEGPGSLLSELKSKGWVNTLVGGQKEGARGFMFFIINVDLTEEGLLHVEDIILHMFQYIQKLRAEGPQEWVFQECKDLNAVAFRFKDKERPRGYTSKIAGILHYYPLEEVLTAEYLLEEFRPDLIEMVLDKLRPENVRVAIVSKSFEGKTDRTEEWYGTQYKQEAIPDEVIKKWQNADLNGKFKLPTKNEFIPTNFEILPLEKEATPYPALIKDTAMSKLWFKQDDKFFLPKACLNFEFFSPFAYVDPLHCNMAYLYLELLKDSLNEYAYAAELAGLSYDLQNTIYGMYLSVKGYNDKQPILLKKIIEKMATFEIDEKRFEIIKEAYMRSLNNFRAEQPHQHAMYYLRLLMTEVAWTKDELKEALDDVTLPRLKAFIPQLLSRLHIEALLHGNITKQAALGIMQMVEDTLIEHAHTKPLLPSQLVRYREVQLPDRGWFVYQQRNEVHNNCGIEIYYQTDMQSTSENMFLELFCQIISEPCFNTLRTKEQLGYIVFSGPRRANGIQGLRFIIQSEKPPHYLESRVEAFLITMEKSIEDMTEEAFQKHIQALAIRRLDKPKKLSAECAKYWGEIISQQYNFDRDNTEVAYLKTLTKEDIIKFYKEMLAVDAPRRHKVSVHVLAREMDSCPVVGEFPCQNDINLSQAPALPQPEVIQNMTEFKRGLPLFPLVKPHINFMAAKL

[4] = tested on: HEK293; test: HEK cell cytotoxicity by LDH release, dose response, cytotoxicity control for IDE activator project, fluorescence, HEK cells (AID 588440); format: functional, cell-based; conditions: Homo sapiens;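 note: cytotoxicity by LDH release measuring loss of membrane integrity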
[5] = target: Eukaryotic translation initiation factor 4E (Mus musculus, UniProt P63073); test: eIF4E–eIF4G protein interaction inhibitors, dose response, biochemical, TR-FRET (AID 855); format: functional;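 note: potency for disrupting eIF4E binding to eIF4GI seen as loss of FRET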
Sequence of Eukaryotic translation initiation factor 4E (P63073 whole entry): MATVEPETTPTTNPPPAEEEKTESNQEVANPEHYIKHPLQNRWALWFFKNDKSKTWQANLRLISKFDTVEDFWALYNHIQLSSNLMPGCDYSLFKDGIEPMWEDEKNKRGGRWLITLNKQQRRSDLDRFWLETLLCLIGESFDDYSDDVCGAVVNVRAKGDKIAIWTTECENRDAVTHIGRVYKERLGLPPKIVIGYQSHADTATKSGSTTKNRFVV

[6] = target: T3, Caspase-6 (Homo sapiens, UniProt P55212); test: human caspase-6 inhibitors, dose response, biochemical, VEID-R110 fluorescence, cherry-pick (AID 720632)
T3 sequence (P55212 whole entry): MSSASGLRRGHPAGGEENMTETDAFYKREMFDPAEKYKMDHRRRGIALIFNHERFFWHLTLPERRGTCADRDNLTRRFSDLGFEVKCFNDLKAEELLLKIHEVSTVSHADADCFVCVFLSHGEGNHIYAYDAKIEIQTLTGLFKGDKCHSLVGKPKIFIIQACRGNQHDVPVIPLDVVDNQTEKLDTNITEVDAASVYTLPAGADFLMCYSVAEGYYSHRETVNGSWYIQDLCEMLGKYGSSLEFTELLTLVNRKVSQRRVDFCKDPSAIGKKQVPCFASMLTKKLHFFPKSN

[7] = target: T2, Insulin-degrading enzyme; test: activators of endogenous IDE in HEK cells, dose response, cell-based, fluorescence polarization (AID 588439); format: functional
[8] = target: T4, Small ubiquitin-related modifier 2 (Homo sapiens, UniProt P61956); test: inhibitors of SUMO2 protein-protein interaction, dose response, selectivity assay for SUMO1 interaction inhibitor project, biochemical, FRET, human SUMO2, uHTS hits (AID 624384); format: functional; conditions: read-out: IC50_Mean
T4 sequence (P61956 whole entry): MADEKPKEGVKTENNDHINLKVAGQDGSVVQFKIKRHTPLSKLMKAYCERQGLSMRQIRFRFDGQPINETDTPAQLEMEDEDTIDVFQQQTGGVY

[9] = target: T4, Small ubiquitin-related modifier 2; test: SUMO2–SIM peptide binding inhibitors, dose response, selectivity assay for SUMO1 interaction inhibitor project, biochemical, fluorescence polarization, uHTS hits (AID 624385); format: functional; conditions: read-out: IC50_Mean
[10] = target: T1, Small ubiquitin-related modifier 1; test: inhibitors of SUMO1 peptide binding, dose response, biochemical, fluorescence polarization, uHTS hits (AID 624382); format: functional; conditions: read-out: IC50_Mean
[11] = target: T5, ORF 73 (Human herpesvirus 8, UniProt O40947); test: inhibitors of C-LANA binding to LBS DNA, dose response, biochemical, fluorescence polarization, cherry-picked samples (AID 504725); design: species or system Human gammaherpesvirus 8;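 note: fluorescence polarization of a labeled DNA duplex reporting LANA DNA binding; potency is for inhibitors that block LANA binding to the DNA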
T5 sequence (O40947 whole entry): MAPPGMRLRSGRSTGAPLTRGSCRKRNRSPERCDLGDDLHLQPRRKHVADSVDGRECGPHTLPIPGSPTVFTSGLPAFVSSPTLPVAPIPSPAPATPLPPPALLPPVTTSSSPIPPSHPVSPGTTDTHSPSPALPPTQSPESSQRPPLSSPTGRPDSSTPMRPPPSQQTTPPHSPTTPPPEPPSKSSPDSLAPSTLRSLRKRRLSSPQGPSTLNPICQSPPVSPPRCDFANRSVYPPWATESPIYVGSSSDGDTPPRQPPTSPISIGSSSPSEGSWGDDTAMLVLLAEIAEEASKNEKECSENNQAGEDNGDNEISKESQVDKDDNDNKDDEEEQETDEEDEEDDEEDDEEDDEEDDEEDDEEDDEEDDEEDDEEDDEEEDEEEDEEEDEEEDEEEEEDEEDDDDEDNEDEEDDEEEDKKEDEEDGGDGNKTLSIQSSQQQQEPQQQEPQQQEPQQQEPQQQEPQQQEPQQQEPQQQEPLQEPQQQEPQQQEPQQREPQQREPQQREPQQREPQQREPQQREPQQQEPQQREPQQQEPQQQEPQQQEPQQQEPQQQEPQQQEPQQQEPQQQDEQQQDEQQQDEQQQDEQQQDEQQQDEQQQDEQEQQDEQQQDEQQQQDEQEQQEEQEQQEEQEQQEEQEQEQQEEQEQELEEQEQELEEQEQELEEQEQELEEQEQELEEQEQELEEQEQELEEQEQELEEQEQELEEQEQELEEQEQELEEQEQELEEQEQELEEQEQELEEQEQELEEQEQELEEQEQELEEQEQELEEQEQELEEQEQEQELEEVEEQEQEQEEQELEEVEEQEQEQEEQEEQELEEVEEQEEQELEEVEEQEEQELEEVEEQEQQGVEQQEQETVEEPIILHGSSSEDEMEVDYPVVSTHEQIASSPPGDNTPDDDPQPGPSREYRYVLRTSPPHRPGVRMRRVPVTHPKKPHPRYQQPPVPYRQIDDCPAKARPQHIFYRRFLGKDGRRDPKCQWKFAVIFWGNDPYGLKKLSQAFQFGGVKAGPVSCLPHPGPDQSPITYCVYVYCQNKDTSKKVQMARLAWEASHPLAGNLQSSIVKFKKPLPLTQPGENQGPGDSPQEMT

[12] = tested on: HEK293; test: optical interference in Abeta FP readout, dose response, artefact control for IDE activator project, biochemical, fluorescence polarization (AID 588442); format: functional, cell-based; conditions: Homo sapiens
[13] = tested on: HeLa; test: HeLa cell cytotoxicity, dose response, cytotoxicity control, 24 h, cherry-picked samples (AID 504726); format: functional, cell-based; conditions: Homo sapiens;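 note: potency for cytotoxicity as loss of luminescence signal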
[14] = target: T6, RNA-editing ligase 1, mitochondrial (Trypanosoma brucei brucei, UniProt P86926); test: TbREL1 ligase inhibitors, dose response, biochemical, fluorescence, Trypanosoma brucei (AID 1117295); format: functional
T6 sequence (P86926 whole entry): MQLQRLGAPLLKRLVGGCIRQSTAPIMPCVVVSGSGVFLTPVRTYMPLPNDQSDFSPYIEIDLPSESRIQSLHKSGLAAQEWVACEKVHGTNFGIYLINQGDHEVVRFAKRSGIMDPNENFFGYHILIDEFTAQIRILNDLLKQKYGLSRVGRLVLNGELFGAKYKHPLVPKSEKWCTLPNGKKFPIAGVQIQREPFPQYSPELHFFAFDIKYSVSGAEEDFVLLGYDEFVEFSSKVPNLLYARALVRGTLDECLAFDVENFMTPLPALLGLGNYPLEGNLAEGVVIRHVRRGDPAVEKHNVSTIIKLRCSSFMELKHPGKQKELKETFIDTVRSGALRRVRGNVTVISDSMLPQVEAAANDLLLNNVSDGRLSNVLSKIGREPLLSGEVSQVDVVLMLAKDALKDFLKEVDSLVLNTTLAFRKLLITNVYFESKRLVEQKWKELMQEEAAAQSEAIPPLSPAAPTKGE

[15] = Luminescence Cell-Based Dose Retest to Confirm Inhibitors of Cancer Stem Cells. [Related pubchem assays (depositor defined):AID2717, AID2721]; format: functional; conditions: Homo sapiens
[16] = target: T7, RNA-binding protein pos-1 (Caenorhabditis elegans, UniProt G5EF15); test: inhibitors of POS-1/mex-3 RNA binding, dose response, biochemical, fluorescence polarization (AID 1964);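 note: purified POS-1 fused to maltose binding protein made in E. coli; potency of compounds blocking POS-1 binding to fluorescent RNA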
T7 sequence (G5EF15 whole entry): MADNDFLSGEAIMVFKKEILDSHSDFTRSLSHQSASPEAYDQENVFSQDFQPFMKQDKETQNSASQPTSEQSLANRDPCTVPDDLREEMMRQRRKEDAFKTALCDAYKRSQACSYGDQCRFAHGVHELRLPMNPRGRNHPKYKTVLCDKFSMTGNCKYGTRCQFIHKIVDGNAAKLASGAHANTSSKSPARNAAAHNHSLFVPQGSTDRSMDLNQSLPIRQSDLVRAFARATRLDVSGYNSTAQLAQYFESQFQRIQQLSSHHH

[17] = target: T8, Heat shock factor protein 1 (Mus musculus, UniProt P38532); test: inhibition of MG132-induced HSE-luciferase signal, confirmation, cell-based, NIH3T3, luminescence, dose retest (AID 2382); format: functional;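 note: NIH3T3 fibroblasts with HSF1-driven luciferase reporter stressed by proteasome inhibitor MG132; luminescence from HSF1-driven luciferase expression after 8 hours of MG132 stress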
T8 sequence (P38532 whole entry): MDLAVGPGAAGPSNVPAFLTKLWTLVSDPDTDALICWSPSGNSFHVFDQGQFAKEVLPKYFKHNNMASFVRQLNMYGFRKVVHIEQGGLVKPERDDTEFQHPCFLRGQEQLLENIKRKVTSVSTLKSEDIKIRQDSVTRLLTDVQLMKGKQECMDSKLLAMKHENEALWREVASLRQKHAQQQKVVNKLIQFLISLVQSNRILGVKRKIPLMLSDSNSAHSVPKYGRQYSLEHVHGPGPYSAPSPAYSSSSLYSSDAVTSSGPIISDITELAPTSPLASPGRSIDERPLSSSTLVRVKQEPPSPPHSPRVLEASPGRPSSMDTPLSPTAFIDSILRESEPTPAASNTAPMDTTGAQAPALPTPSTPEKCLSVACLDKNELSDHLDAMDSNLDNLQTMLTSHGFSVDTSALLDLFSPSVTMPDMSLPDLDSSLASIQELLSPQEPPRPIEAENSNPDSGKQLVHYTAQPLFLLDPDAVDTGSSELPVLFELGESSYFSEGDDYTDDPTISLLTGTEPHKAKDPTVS

[18] = HEK293T cytotoxicity, dose response, cytotoxicity control for miR-122 modulator project, cell-based, inhibitor set, cherry-pick, set 2 (AID 720697); format: functional
[19] = target: G-protein coupled receptor 55 (Homo sapiens, UniProt Q9Y2T6); test: GPR55 agonists via beta-arrestin recruitment, primary screen, imaging, U2OS cells, beta-arrestin-GFP redistribution (AID 1961); format: functional
Sequence of G-protein coupled receptor 55 (Q9Y2T6 whole entry): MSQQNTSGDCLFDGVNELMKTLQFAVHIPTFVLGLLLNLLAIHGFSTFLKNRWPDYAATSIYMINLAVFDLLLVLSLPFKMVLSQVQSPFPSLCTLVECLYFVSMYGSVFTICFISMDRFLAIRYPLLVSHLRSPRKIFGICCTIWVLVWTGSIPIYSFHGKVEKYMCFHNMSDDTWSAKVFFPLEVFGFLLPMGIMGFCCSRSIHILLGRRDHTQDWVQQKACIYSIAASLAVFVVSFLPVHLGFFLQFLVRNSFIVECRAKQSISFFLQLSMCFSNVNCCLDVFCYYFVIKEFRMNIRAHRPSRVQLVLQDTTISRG

[20] = target: T9, Zinc finger protein mex-5 (Caenorhabditis elegans, UniProt Q9XUB2); test: MEX-5/TCR-2 RNA interaction inhibitors, dose response, biochemical, C. elegans, fluorescence polarization (AID 1960)
T9 sequence (Q9XUB2 whole entry): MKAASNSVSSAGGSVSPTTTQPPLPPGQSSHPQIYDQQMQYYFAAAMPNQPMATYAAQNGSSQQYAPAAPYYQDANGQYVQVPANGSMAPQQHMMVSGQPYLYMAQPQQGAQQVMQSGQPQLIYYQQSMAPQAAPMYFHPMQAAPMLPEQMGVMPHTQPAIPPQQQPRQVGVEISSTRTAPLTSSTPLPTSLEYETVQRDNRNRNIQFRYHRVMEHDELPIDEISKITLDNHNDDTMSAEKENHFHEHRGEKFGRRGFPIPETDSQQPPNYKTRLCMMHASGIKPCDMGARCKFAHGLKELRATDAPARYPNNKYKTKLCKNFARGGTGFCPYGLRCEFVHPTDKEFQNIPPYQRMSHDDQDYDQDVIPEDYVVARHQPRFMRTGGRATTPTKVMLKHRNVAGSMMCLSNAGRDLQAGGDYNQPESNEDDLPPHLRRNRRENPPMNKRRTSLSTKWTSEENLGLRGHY

[21] = miR-122 activators in hepatoma reporter cells, dose response, cell-based, Huh7 psiCHECK-miR122, Renilla luciferase, cherry-picked (AID 651956); format: functional;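 note: huh7 hepatoma cells stably carrying a psiCHECK-2 miR-122 sensor plasmid; renilla luciferase signal reporting endogenous miR-122 activity after 48 h compound exposure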
[22] = HEK293T cytotoxicity, dose response, cytotoxicity control for miR-122 modulator project, cell-based, activator set, cherry-pick (AID 720690); format: functional;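 note: HEK293T human cells scored for general mammalian cytotoxicity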

T1 sequence (P63165 whole entry): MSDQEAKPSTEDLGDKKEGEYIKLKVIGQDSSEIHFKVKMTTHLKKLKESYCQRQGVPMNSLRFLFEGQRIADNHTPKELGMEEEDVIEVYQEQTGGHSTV

Cc1cc2nc3c(=O)[nH]c(=O)[nH]c3nc2c([N+](=O)[O-])c1N
IC50 [1]: 51.7 µM (inactive)
AC50 [2]: 1.78 µM (active)
EC50 [3]: > 54.7 µM (inactive)
IC50 [4]: > 89.3 µM (inactive)
IC50 [5]: 50 µM (inactive)
AC50 [6]: 4.58 µM (active)
EC50 [7]: > 54.7 µM (inactive)
IC50 [8]: > 66 µM (inactive)
IC50 [9]: 2.48 µM (active)
IC50 [10]: 2.33 µM (active)
AC50 [11]: 3.99 µM (active)
EC50 [12]: 32.1 µM (inactive)
AC50 [13]: 150 µM (active)

COc1cc2c(cc1OC)C(c1ccc(-c3ccc(Cl)c(Cl)c3)o1)=NCC2
IC50 [14]: 35.8 µM (inactive)
AC50 [15]: 4.34 µM (active)
EC50 [16]: > 300 µM (inconclusive)
EC50 [17]: > 195 µM (not active)
AC50 [18]: 8.91 µM (active)
EC50 [19]: > 32 µM (inactive)
EC50 [20]: > 300 µM (not active)
AC50 [21]: 25.7 µM (active)
AC50 [22]: 9.82 µM (active)
